In ChEMBL document CHEMBL4715758, “Hit-to-Lead Optimization of a Novel Class of Potent, Broad-Spectrum Trypanosomacides” (J Med Chem, 2016):
≈ marks a conversion by molar mass, not a printed value. Calls of active or inactive are those of the source. No cut-off for these calls is given here.

Key:
[1] = Drug metabolism in human liver microsomes assessed as 2-(2-phenylthiazol-4-yl)-ethanol metabolite formation in presence of NADPH and UDPGA measured after 60 mins by LC-MS analysis; format: ADME, Microsome; conditions: 1 h
[2] = Drug metabolism in human liver microsomes assessed as secondary hydroxylation by measuring N-(2-(4-(2,4-difluorophenyl)thiazol-2-yl)ethyl)piperidine-1-carboxamide metabolite formation in presence of NADPH measured after 60 mins by LC-MS analysis; format: ADME, Microsome; conditions: 1 h
Plasmodium falciparum = experiment: Antiplasmodial activity against chloroquine and pyrimethamine resistant erythrocytic stage of Plasmodium falciparum K1 strain assessed as reduction in [3H]hypoxanthine incorporation measured after 48 hrs by liquid scintillation counting method; format: functional, organism-based
[3] = Partition coefficient, log D of compound at pH 7.4 by HPLC; format: physicochemical; conditions: octanol/water
[4] = Metabolic stability in human liver microsome assessed as compound degradation measured over 60 mins in absence of cofactor by LC-MS analysis; format: ADME; conditions: liver microsomes, read-out: Drug degradation
[5] = Drug metabolism in human liver microsomes assessed as hydroxylation by measuring 3-fluoro-N-(2-(2-(4-hydroxyphenyl)thiazol-4-yl)ethyl)benzamide formation in presence of NADPH measured after 60 mins by LC-MS analysis; format: ADME, Microsome; conditions: 1 h
[6] = Drug metabolism in human liver microsomes assessed as hydroxylation by measuring 3-fluoro-N-(2-hydroxy-2-(2-phenylthiazol-4-yl)ethyl)benzamide formation in presence of NADPH measured after 60 mins by LC-MS analysis; format: ADME, Microsome; conditions: 1 h
Vero = experiment: Cytotoxicity against African green monkey Vero cells assessed as reduction in cell viability; format: cell-based; conditions: chlorocebus sabaeus
Trypanosoma cruzi [7] = experiment: Antitrypanosomal activity against Trypanosoma cruzi infected in vero cells assessed as parasite growth inhibition incubated from 24 to 96 hrs by time kill assay; format: functional, organism-based
Trypanosoma cruzi [8] = experiment: Inhibition of Trypanosoma cruzi Tulahuen C4 CYP51 expressed in Escherichia coli JM109 using BOMCC as substrate in presence of NADPH by fluorescence assay
Trypanosoma cruzi [9] = experiment: Antitrypanosomal activity against Trypanosoma cruzi Tulahuen C4 strain amastigotes infected in rat L6 cells measured after 96 hrs by inverted microscopy analysis; format: functional, organism-based; conditions: Tulahuen C4, L6, 96 h
L6 = experiment: Cytotoxicity against rat L6 cells assessed as reduction in cell viability measured after 72 hrs by alamar blue dye based fluorimetry analysis; conditions: L6, 72 h
[10] = Drug metabolism in human liver microsomes assessed as oxidative dealkylation by measuring 2-(2-phenylthiazol-4-yl)-ethanol formation in presence of NADPH measured after 60 mins by LC-MS analysis; format: ADME, Microsome; conditions: 1 h
[11] = Intrinsic clearance in human liver microsomes assessed per mg protein measured after 60 mins in presence of NADPH generating system by LC-MS analysis; format: ADME, Microsome; conditions: read-out: CLH
[12] = Protein binding in human plasma by HPLC-MS analysis; format: ADME, cell-free; conditions: read-out: PPB (converted)
Leishmania donovani = experiment: Antileishmanial activity against Leishmania donovani MHOM/ET/67/L82 amastigotes measured after 72 hrs by alamar blue dye based fluorimetry analysis; format: functional, organism-based; conditions: MHOM/ET/67/L82, 72 h
[13] = Drug metabolism in human liver microsomes assessed as N-(2-(4-(2,4-difluorophenyl)thiazol-2-yl)ethyl)piperidine-1-carboxamide metabolite formation in presence of NADPH and UDPGA measured after 60 mins by LC-MS analysis; format: ADME, Microsome; conditions: 1 h
[14] = Kinetic solubility of compound at pH 2 by nephelometry; format: physicochemical; conditions: buffer, read-out: Kinetic_solubility
Trypanosoma cruzi [15] = experiment: Antitrypanosomal activity against Trypanosoma cruzi infected in vero cells assessed as reduction in parasite growth inhibition incubated for 96 hrs by time kill assay relative to nifurtimox; format: functional
[16] = Metabolic stability in human liver microsomes assessed as degradation half-life measured after 60 mins in presence of NADPH generating system by LC-MS analysis; format: ADME, Microsome; conditions: read-out: T50
Trypanosoma cruzi [17] = experiment: Antitrypanosomal activity against Trypanosoma cruzi Tulahuen strain trypomastigotes infected in rat H9c2 cells incubated for 72 hrs by DRAQ5 DNA dye based imaging analysis; format: functional, organism-based; conditions: H9c2, 72 h
[18] = system: Trypanosoma brucei rhodesiense; experiment: Antitrypanosomal activity against Trypanosoma brucei rhodesiense STIB900 trypomastigotes incubated for 72 hrs by resazurin dye based fluorescence assay; format: functional, organism-based; conditions: STIB900, 72 h
[19] = Kinetic solubility of compound at pH 6.5 phosphate buffer by nephelometry; format: physicochemical; conditions: read-out: Kinetic_solubility
[20] = Selectivity index, ratio of IC50 for cytotoxicity against human HEK293 cells assessed as reduction in cell viability to IC50 for antitrypanosomal activity against Trypanosoma brucei brucei Lister 427 blood stream form; format: toxicity, cell-based; conditions: read-out: Ratio IC50
Trypanosoma cruzi [21] = experiment: Antitrypanosomal activity against Trypanosoma cruzi infected in vero cells assessed as minimum concentration required for parasite growth inhibition incubated from 24 to 96 hrs by time kill assay; format: functional; conditions: time 24-96 hrs, read-out: MEC
[22] = system: Trypanosoma brucei brucei; experiment: Antitrypanosomal activity against Trypanosoma brucei brucei Lister 427 strain blood stream forms incubated for 48 hrs by resazurin dye based fluorescence assay; format: functional, organism-based; conditions: Lister 427, 48 h
[23] = Selectivity index, ratio of IC50 for cytotoxicity against rat H9c2 cells assessed as reduction in cell viability to IC50 for antitrypanosomal against Trypanosoma cruzi Tulahuen trypomastigotes infected in rat H9c2 cells; format: toxicity, cell-based; conditions: read-out: Ratio IC50
[24] = Metabolic stability in mouse liver microsomes assessed as degradation half-life measured after 60 mins in presence of NADPH generating system by LC-MS analysis; format: ADME, Microsome; conditions: read-out: T50
[25] = Intrinsic clearance in mouse liver microsomes assessed per mg protein measured after 60 mins in presence of NADPH generating system by LC-MS analysis; format: ADME, Microsome; conditions: read-out: CLH
[26] = Metabolic stability in human liver microsomes assessed as half-life measured after 60 mins in presence of NADPH generating system by LC-MS analysis; format: ADME, Microsome

Structure (SMILES) | logD [3] | microsomal CLint [11] | fraction unbound [12] | solubility kinetic [14] | half-life [16] | IC50 (Trypanosoma cruzi [17]) | IC50 [22] | IC50 (Plasmodium falciparum) | IC50 (Trypanosoma cruzi [9]) | IC50 (L6) | IC50 (Leishmania donovani) | selectivity ratio [20] | further results
O=C(NCCc1csc(-c2ccccc2)n1)c1cccc(F)c1 | 3.6 | 484 µL/min/mg | 0.04 | 6 µg/mL (≈ 18.4 µM) | 4 min | 500 nM |  | 41000 nM | 200 nM | 51000 nM | 10000 nM |  | Drug metabolism [1]: Metabolite_Detected; Drug metabolism [2]: Metabolite_Detected; metabolised at 1 h [4]: 14%; Drug metabolism [5]: Metabolite_Detected; Drug metabolism [6]: Metabolite_Detected; Activity (Vero): 17 µM; IC50 (Trypanosoma cruzi [7]): 400 nM; inhibition (Trypanosoma cruzi [8]): inactive; Drug metabolism [10]: Metabolite_Detected; Drug metabolism [13]: Metabolite_Detected; Imax (Trypanosoma cruzi [15]): 106%
CC(C)(C)C(=O)NCCc1csc(-c2cccc(F)c2)n1 |  |  |  |  |  |  |  | 35000 nM | 2300 nM | 62000 nM | 46000 nM |  | IC50 [18]: 1500 nM
O=C(NCCc1csc(-c2ccccc2)n1)c1ccccn1 |  |  |  |  |  |  | 300 nM | 65000 nM | 900 nM | 66000 nM | 12000 nM | 139 | IC50 [18]: 220 nM

Continued, in another order:

logD [3] | microsomal CLint [11] | fraction unbound [12] | solubility kinetic [14] | half-life [16] | IC50 (Trypanosoma cruzi [17]) | IC50 [22] | Structure (SMILES) | IC50 (Plasmodium falciparum) | IC50 (Trypanosoma cruzi [9]) | IC50 (L6) | IC50 (Leishmania donovani) | selectivity ratio [20] | further results
3.5 |  | 0.05 | 6 µg/mL (≈ 19.2 µM) |  |  | 130 nM | Cc1ccoc1C(=O)NCCc1csc(-c2ccccc2)n1 |  |  |  |  | 666 | solubility kinetic [19]: 6 µg/mL (≈ 19.2 µM); Activity (Vero): 50 µM; IC50 (Trypanosoma cruzi [7]): 600 nM; inhibition (Trypanosoma cruzi [8]): inactive; minimal effective concentration (Trypanosoma cruzi [21]): 0.6 µM; Imax (Trypanosoma cruzi [15]): 104%
 | 439 µL/min/mg |  |  | 4 min | 10 nM | 16 nM | O=C(NCCc1csc(-c2ccccc2F)n1)N1CCCCC1 |  |  |  |  | 650 | selectivity ratio [23]: > 3980; half-life [24]: < 2 min; microsomal CLint [25]: > 1600 µL/min/mg
3.2 | 244 µL/min/mg | 0.1 | 50 µg/mL (≈ 159 µM) | 7 min | 39 nM |  | O=C(NCCc1csc(-c2ccccc2)n1)N1CCCCC1 |  |  |  |  |  | solubility kinetic [19]: 25 µg/mL (≈ 79.3 µM)
 | 135 µL/min/mg |  |  |  | 130 nM |  | CC(C)OC(=O)NCCc1csc(-c2ccc(F)cc2F)n1 |  |  |  |  |  | selectivity ratio [23]: > 398; half-life [26]: 10 min
